# In US12281363B2, “Methods for detecting antiviral-drug resistant virus” (Secretary of State for Health and Social Care, priority 2018, dated 2025):
# pIC50: −log10 of the molar value. Like-named read-outs stand apart in the source and are kept apart here.
# System: HSV-1
# Test: Plaque reduction assay, HSV-1 clinical isolates on Vero cells
# Assay type: cell-based
# Conditions: Human alphaherpesvirus 1, Vero
# From the text: Viral isolates were used to infect a sub-confluent monolayer of Vero cells at a concentration of 75 or 50 plaque forming units (PFU) per well for HSV-1 and HSV-2, respectively. […] CMC medium typically used to create a semisolid interface and prevents indiscrimate viral spreading. Other materials (e.g. agar) may also be used to create this interface.
# Cells were fixed with 10% formalin and stained with crystal violet before enumeration of the plaques (microscopic observation or use of fluorescent antibodies for detection is also suitable). The data obtained from these experiments were then expressed as percent inhibition of viral infectivity relative to the no drug control.
# Definitions of phenotypic drug susceptibility classification as sensitive or resistant were as follows: ACV, <3 μM or >40 μM; PCV, <10 μM or >40 μM; CDV, <24 μM or >30 μM; FOS, <250 μM or >400 μM; and ACV, <6.5 μM or >40 μM; PCV, <38 μM or >40 μM; FOS, <250 μM or >400 μM for HSV-1 and HSV-2, respectively. Any IC50 values falling in between these sensitive and resistant cut-offs were reported as intermediate resistance.
# The phenotype (i.e. reactivity to a drug) of the virus was characterised by the plaque reduction assay as described above.
smiles,measurement,setting,value
"O=C(O)P(=O)(O)O [Foscarnet, foscarnet]",pIC50,"72 h, isolate HPG053, HSV-1 pol L802R + A834S (2405T>G, 2500G>T), also TK R176W, read-out: Drug susceptibility (IC50 value)",3.20
same,pIC50,"isolate HPG002, HSV-1 pol E992K (2974G>A), also TK insert (G) nt 430-436, pol A1169T, read-out: Drug susceptibility (IC50 value)",> 4.30
same,pIC50,"isolate HPG002, HSV-1 pol E992K (2974G>A), also TK insert (G) nt 430-436, pol A1169T, read-out: Drug susceptibility Foscarnet (FOS)",> 3.60
same,pIC50,"isolate HPG003, HSV-1 TK Y172S (515A>C), read-out: Drug susceptibility (IC50 value)",4.10
same,pIC50,"isolate HPG003, HSV-1 TK Y172S (515A>C), read-out: Drug susceptibility Foscarnet (FOS)",> 3.60
same,pIC50,"isolate HPG005, HSV-1 TK A37V (110C>T), read-out: Drug susceptibility (IC50 value)",4.43
same,pIC50,"isolate HPG005, HSV-1 TK A37V (110C>T), read-out: Drug susceptibility Foscarnet (FOS)",> 3.60
same,pIC50,"isolate HPG008, HSV-1 TK V204G (611T>G), read-out: Drug susceptibility (IC50 value)",4.23
same,pIC50,"isolate HPG008, HSV-1 TK V204G (611T>G), read-out: Drug susceptibility Foscarnet (FOS)",> 3.60
same,pIC50,"isolate HPG009, HSV-1 pol E992K (2974G>A), also pol A1169T, read-out: Drug susceptibility (IC50 value)",4.11
same,pIC50,"isolate HPG009, HSV-1 pol E992K (2974G>A), also pol A1169T, read-out: Drug susceptibility Foscarnet (FOS)",> 3.60
same,pIC50,"isolate HPG010, HSV-1 TK Q125* (373C>T), read-out: Drug susceptibility (IC50 value)",4.33
same,pIC50,"isolate HPG010, HSV-1 TK Q125* (373C>T), read-out: Drug susceptibility Foscarnet (FOS)",> 3.60
same,pIC50,"isolate HPG011, HSV-1 TK Q125* (373C>T), read-out: Drug susceptibility (IC50 value)",4.25
same,pIC50,"isolate HPG011, HSV-1 TK Q125* (373C>T), read-out: Drug susceptibility Foscarnet (FOS)",> 3.60
same,pIC50,"isolate HPG013, HSV-1 TK M121I (363G>A), read-out: Drug susceptibility (IC50 value)",4.11
same,pIC50,"isolate HPG013, HSV-1 TK M121I (363G>A), read-out: Drug susceptibility Foscarnet (FOS)",> 3.60
same,pIC50,"isolate HPG013, HSV-1 pol D83A (248A>C), also TK M121I, pol A1169T, read-out: Drug susceptibility (IC50 value)",4.11
same,pIC50,"isolate HPG013, HSV-1 pol D83A (248A>C), also TK M121I, pol A1169T, read-out: Drug susceptibility Foscarnet (FOS)",> 3.60
same,pIC50,"isolate HPG014, HSV-1 pol A1115T (3343G>A), read-out: Drug susceptibility (IC50 value)",3.85
same,pIC50,"isolate HPG014, HSV-1 pol A1115T (3343G>A), read-out: Drug susceptibility Foscarnet (FOS)",> 3.60
same,pIC50,"isolate HPG014, HSV-1 pol R993C (2977C>T), read-out: Drug susceptibility (IC50 value)",3.85
same,pIC50,"isolate HPG014, HSV-1 pol R993C (2977C>T), read-out: Drug susceptibility Foscarnet (FOS)",> 3.60
same,pIC50,"isolate HPG014, HSV-1 pol T54A (160A>G), read-out: Drug susceptibility (IC50 value)",3.85
same,pIC50,"isolate HPG014, HSV-1 pol T54A (160A>G), read-out: Drug susceptibility Foscarnet (FOS)",> 3.60
same,pIC50,"isolate HPG015, HSV-1 pol 966stop or F965_I966insF (2892_2893insT to 2895_2896insT), read-out: Drug susceptibility (IC50 value)",3.79
same,pIC50,"isolate HPG015, HSV-1 pol 966stop or F965_I966insF (2892_2893insT to 2895_2896insT), read-out: Drug susceptibility Foscarnet (FOS)",> 3.60
same,pIC50,"isolate HPG018, HSV-1 TK frameshift (881delC to 885delC), read-out: Drug susceptibility (IC50 value)",4.18
same,pIC50,"isolate HPG018, HSV-1 TK frameshift (881delC to 885delC), read-out: Drug susceptibility Foscarnet (FOS)",> 3.60
same,pIC50,"isolate HPG018, HSV-1 pol P1199T (3595C>A), also TK deletion (C) nt 881-885, pol A1169T, read-out: Drug susceptibility (IC50 value)",4.18
same,pIC50,"isolate HPG018, HSV-1 pol P1199T (3595C>A), also TK deletion (C) nt 881-885, pol A1169T, read-out: Drug susceptibility Foscarnet (FOS)",> 3.60
same,pIC50,"isolate HPG019, HSV-1 pol K750T (2249A>C), also TK deletion (G) nt 430-436, pol A1169T, read-out: Drug susceptibility (IC50 value)",3.72
same,pIC50,"isolate HPG019, HSV-1 pol K750T (2249A>C), also TK deletion (G) nt 430-436, pol A1169T, read-out: Drug susceptibility Foscarnet (FOS)",> 3.60
same,pIC50,"isolate HPG020, HSV-1 pol S911N (2732G>A), also pol A1169T, read-out: Drug susceptibility (IC50 value)",4.00
same,pIC50,"isolate HPG020, HSV-1 pol S911N (2732G>A), also pol A1169T, read-out: Drug susceptibility Foscarnet (FOS)",> 3.60
same,pIC50,"isolate HPG021, HSV-1 pol R681Q (2042G>A), also TK deletion (G) nt 430-436, read-out: Drug susceptibility (IC50 value)",3.81
same,pIC50,"isolate HPG021, HSV-1 pol R681Q (2042G>A), also TK deletion (G) nt 430-436, read-out: Drug susceptibility Foscarnet (FOS)",> 3.60
same,pIC50,"isolate HPG021, HSV-1 pol T839A (2515A>G), also TK deletion (G) nt 430-436, read-out: Drug susceptibility (IC50 value)",3.81
same,pIC50,"isolate HPG021, HSV-1 pol T839A (2515A>G), also TK deletion (G) nt 430-436, read-out: Drug susceptibility Foscarnet (FOS)",> 3.60
same,pIC50,"isolate HPG025, HSV-1 pol E850Q (2548G>C), also TK R216C, read-out: Drug susceptibility (IC50 value)",4.00
same,pIC50,"isolate HPG025, HSV-1 pol E850Q (2548G>C), also TK R216C, read-out: Drug susceptibility Foscarnet (FOS)",> 3.60
same,pIC50,"isolate HPG026, HSV-1 pol E850Q (2548G>C), also TK R216C, pol A1169T, read-out: Drug susceptibility (IC50 value)",4.17
same,pIC50,"isolate HPG026, HSV-1 pol E850Q (2548G>C), also TK R216C, pol A1169T, read-out: Drug susceptibility Foscarnet (FOS)",> 3.60
same,pIC50,"isolate HPG027, HSV-1 TK V204G (611T>G), also pol S914L, A1169AT, read-out: Drug susceptibility (IC50 value)",3.67
same,pIC50,"isolate HPG027, HSV-1 TK V204G (611T>G), also pol S914L, A1169AT, read-out: Drug susceptibility Foscarnet (FOS)",> 3.60
same,pIC50,"isolate HPG027, HSV-1 pol S914L (2741C>T), also TK V204G, pol A1169T, read-out: Drug susceptibility (IC50 value)",3.67
same,pIC50,"isolate HPG027, HSV-1 pol S914L (2741C>T), also TK V204G, pol A1169T, read-out: Drug susceptibility Foscarnet (FOS)",> 3.60
same,pIC50,"isolate HPG029, HSV-1 TK Y172S (515A>C), read-out: Drug susceptibility (IC50 value)",3.96
same,pIC50,"isolate HPG029, HSV-1 TK Y172S (515A>C), read-out: Drug susceptibility Foscarnet (FOS)",> 3.60
same,pIC50,"isolate HPG031, HSV-1 pol E1120A (3359A>C), also a TK resistance mutation (footnote e), read-out: Drug susceptibility (IC50 value)",3.96
same,pIC50,"isolate HPG031, HSV-1 pol E1120A (3359A>C), also a TK resistance mutation (footnote e), read-out: Drug susceptibility Foscarnet (FOS)",> 3.60
same,pIC50,"isolate HPG031, HSV-1 pol G139R (415G>C or 415G>A), also a TK resistance mutation (footnote e), read-out: Drug susceptibility (IC50 value)",3.96
same,pIC50,"isolate HPG031, HSV-1 pol G139R (415G>C or 415G>A), also a TK resistance mutation (footnote e), read-out: Drug susceptibility Foscarnet (FOS)",> 3.60
same,pIC50,"isolate HPG032, HSV-1 TK 183* (437_438insA), read-out: Drug susceptibility (IC50 value)",4.00
same,pIC50,"isolate HPG032, HSV-1 TK 183* (437_438insA), read-out: Drug susceptibility Foscarnet (FOS)",> 3.60
